Measurements published in ChEMBL document CHEMBL1142558, “A new polyether ladder compound produced by the dinoflagellate Karenia brevis” (J Nat Prod, 2005).

Assays:
Gambusia affinis = test: Toxicity against Gambusia affinis assessed as time required for death at 1 ug/ml after 24 hrs; assay type: organism-based; details: in vivo
[1] = Displacement of [3H]PbTx3 from VSSC in Sprague-Dawley rat brain synaptosomes; assay type: subcellular

SMILES: C=C/C=C\CC[C@H]1O[C@H]2CC[C@@]3(C)O[C@H]4[C@@H](O)C[C@@]5(C)O[C@@H](CC/C=C(C)/C(C)=C/C(OC)OC)[C@@H](C)C[C@@H]5O[C@@H]4C[C@@H]3O[C@@H]2CC[C@@]1(C)O [BREVENAL ACETAL]
- Activity (Gambusia affinis): Non-toxic
- Ki [1]: 680 nM

SMILES: C=C/C=C\CC[C@H]1O[C@H]2CC[C@@]3(C)O[C@H]4[C@@H](O)C[C@@]5(C)O[C@@H](CC/C=C(C)/C(C)=C/C=O)[C@@H](C)C[C@H]5O[C@@H]4C[C@@H]3O[C@@H]2CC[C@@]1(C)O [BREVENAL]
- Activity (Gambusia affinis): Non-toxic
- Ki [1]: 1850 nM

SMILES: C=C(C=O)C[C@@H]1C[C@H](O)[C@]2(C)O[C@@H]3C[C@@H]4O[C@@H]5C[C@]6(C)O[C@]7(C)CC[C@@H]8O[C@@H]9C[C@]%10(C)O[C@@H]%11C(C)=CC(=O)O[C@H]%11C[C@H]%10O[C@H]9C[C@@H](C)[C@H]8O[C@H]7C[C@H]6O[C@@]5(C)C/C=C\[C@H]4O[C@H]3C[C@H]2O1 [BREVETOXIN B]
- Activity (Gambusia affinis): 7.5 min
